Source: ChEMBL document CHEMBL3045124, “Molecular docking and in silico studies on analogues of 2-methylheptyl isonicotinate with DHDPS enzyme of Mycobacterium tuberculosis” (2013)
Converted amounts (≈) assume the structure as drawn.

Legend:
Assay type in all cases: functional
[1] = system: Mycobacterium tuberculosis; assay: Antitubercular activity against Mycobacterium tuberculosis
[2] = system: Escherichia coli; assay: Antibacterial activity against Escherichia coli
[3] = system: Proteus vulgaris; assay: Antimicrobial activity against Proteus vulgaris
[4] = system: Bacillus subtilis; assay: Antibacterial activity against Bacillus subtilis
[5] = system: Klebsiella sp.; assay: Antibacterial activity against Klebsiella sp. after 24 hr by agar cup assay
[6] = system: Arthrobacter sp.; assay: Antibacterial activity against Arthrobacter sp. after 24 hr by agar cup assay
[7] = system: Proteus mirabilis; assay: Antibacterial activity against Proteus mirabilis after 24 hr by agar cup assay
[8] = system: Escherichia coli; assay: Antibacterial activity against Escherichia coli after 24 hr by agar cup assay
[9] = system: Shigella sp.; assay: Antibacterial activity against Shigella sp. after 24 hr by agar cup assay
[10] = system: Bacillus subtilis; assay: Antibacterial activity against Bacillus subtilis after 24 hr by agar cup assay

CCCCCCCCOC(=O)c1ccncc1 [ISONICOTINIC ACID OCTYL ESTER] was tested, and the MIC [1] was 8 µg/mL (≈ 34 µM), the MIC [2] was 16 µg/mL (≈ 68 µM) and the MIC [3] was 6 µg/mL (≈ 25.5 µM). The MIC [4] was 16 µg/mL (≈ 68 µM).
CCCCCCCCCCCCCCCCCCOC(=O)c1ccncc1 [ISONICOTINIC ACID OCTADECYL ESTER] gave an MIC [1] of 320 µg/mL (≈ 852 µM), an MIC [2] of 600 µg/mL (≈ 1600 µM) and an MIC [3] of 560 µg/mL (≈ 1490 µM). It also gave an MIC [4] of 600 µg/mL (≈ 1600 µM).
In the case of CCCCC[C@@H](C)COC(=O)c1ccncc1 [ISONICOTINIC ACID 2-METHYL-HEPTYL ESTER], the MIC [1] is reported as 10 µg/mL (≈ 42.5 µM), the MIC [2] is reported as 16 µg/mL (≈ 68 µM) and the MIC [3] is reported as 6 µg/mL (≈ 25.5 µM). For the same compound, the MIC [4] was 16 µg/mL (≈ 68 µM).
Compound CCCCCOC(=O)c1ccncc1 [ISONICOTINIC ACID PENTYL ESTER] has an MIC [1] of 10 µg/mL (≈ 51.7 µM), an MIC [2] of 20 µg/mL (≈ 103 µM) and an MIC [3] of 14 µg/mL (≈ 72.4 µM). It also gave an MIC [4] of 20 µg/mL (≈ 103 µM).
NNC(=O)c1ccncc1 [ISONIAZID] was tested, and the MIC [5] was 250 µg/mL (≈ 1820 µM), the MIC [6] was 150 µg/mL (≈ 1090 µM) and the MIC [7] was 200 µg/mL (≈ 1460 µM). For the same compound, the MIC [8] was 2520 µg/mL (≈ 18400 µM), the MIC [9] was 300 µg/mL (≈ 2190 µM) and the MIC [10] was 150 µg/mL (≈ 1090 µM).
CCCCCCCOC(=O)c1ccncc1 [ISONICOTINIC ACID HEPTYL ESTER] gave an MIC [1] of 16 µg/mL (≈ 72.3 µM), an MIC [2] of 24 µg/mL (≈ 108 µM) and an MIC [3] of 16 µg/mL (≈ 72.3 µM). For the same compound, the MIC [4] was 24 µg/mL (≈ 108 µM).
With CCCCC[C@H](C)COC(=O)c1ccncc1 [(S)-2-METHYLHEPTYL ISONICOTINATE] the MIC [1] was 14 µg/mL (≈ 59.5 µM), the MIC [2] was 20 µg/mL (≈ 85 µM) and the MIC [3] was 14 µg/mL (≈ 59.5 µM). The MIC [4] was 20 µg/mL (≈ 85 µM).
CCCCCCOC(=O)c1ccncc1 [ISONICOTINIC ACID HEXYL ESTER] showed an MIC [1] of 24 µg/mL (≈ 116 µM), an MIC [2] of 50 µg/mL (≈ 241 µM) and an MIC [3] of 36 µg/mL (≈ 174 µM). It also gave an MIC [4] of 50 µg/mL (≈ 241 µM).
CCCCOC(=O)c1ccncc1 [ISONICOTINIC ACID BUTYL ESTER] showed an MIC [1] of 280 µg/mL (≈ 1560 µM), an MIC [2] of 600 µg/mL (≈ 3350 µM) and an MIC [3] of 500 µg/mL (≈ 2790 µM). For the same compound, the MIC [4] was 600 µg/mL (≈ 3350 µM).
For CCCCCC(C)COC(=O)c1ccncc1 (centres undefined) [2-METHYL HEPTYL ISONICOTINATE], the MIC [5] was 50 µg/mL (≈ 212 µM), the MIC [6] was 40 µg/mL (≈ 170 µM) and the MIC [7] was 40 µg/mL (≈ 170 µM). For the same compound, the MIC [8] was 70 µg/mL (≈ 297 µM), the MIC [9] was 60 µg/mL (≈ 255 µM) and the MIC [10] was 50 µg/mL (≈ 212 µM).
